Experimental data reported in US12109266B2, “Modulating gabarap to modulate immunogenic cell death” (Dana-Farber Cancer Institute, Inc., priority 2020, dated 2024).
“Also recorded” adds a separate entry of the source.

Experiments:
[1] = test system: AMO1 and NCI-H929 multiple myeloma cell lines; test: Apoptosis assay (Annexin-V/7-AAD flow cytometry); assay type: cell-based, human; details: BTZ 1-10 nM, 16 h
Experimental: Apoptosis was evaluated by Annexin-V/7-Aminoactinomycin D (7-AAD) staining and flow cytometric analysis using the PE Annexin V Apoptosis Detection Kit I (BD Biosciences), following the manufacturer's instructions.
Apoptosis was evaluated by Annexin-V/7-Aminoactinomycin D (7-AAD) staining and flow cytometric analysis using the PE Annexin V Apoptosis Detection Kit I (BD Biosciences).

[2] = test system: patient-derived MM cells (pdMM); test: Phagocytosis assay of patient-derived MM cells by DCs; assay type: cell-based, human; details: BTZ 5 and 10 nM; 4 h co-culture
Description: Multiple myeloma patients BM aspirates and normal donor peripheral blood mononuclear cells (PBMCs) were obtained after written informed consent, in accordance with the declaration of Helsinki and under the approval by the Institutional Review Board of the Dana-Farber Cancer Institute. BMMCs and PBMCs were separated by Ficoll-Paque PLUS (GE Healthcare). Multiple myeloma cells from BMMCs were enriched by CD138-positive selection using magnetic microbeads (Miltenyi Biotec).
Mo-DCs were generated from CD14+ peripheral blood monocytes from healthy donors, positively selected using magnetic beads (Miltenyi Biotec), cultured for 6 days in mo-DC differentiation medium containing GM-CSF and IL-4 (130-094-812; Miltenyi Biotec). AMO1 and NCI-H929 cells lines, as well as patient MM cells, were stained with CellTrace™ Far Red (ThermoFisher Scientific), cultured with or without BTZ for 16 h, and then incubated in 48-well plates for 4 h at 1:1 ratio with CellTrace™ CFSE stained Mo-DCs. Cells were then collected, and phagocytosis analysis was performed by flow cytometry and confocal microscopy. Analagous phagocytosis experiments were performed using 5TGM1 murine multiple myeloma and JAWSII cell line that was used as source of immature murine DCs.
Flow cytometry-based assay: Collected cells were analyzed using the BD LRSFortessa X-20 flow cytometer. […]

T cells = test: Analysis of T cell priming (co-culture of MM cells, DCs and T cells); assay type: cell-based, human
Experimental: DCs were generated from freshly isolated PBMCs as previously described. T cells were negatively selected from CD14− PBMCs using the Pan T cell Isolation Kit (Miltenyi Biotec) and frozen until immature DCs were generated. Either untreated or BTZ-treated MM cells were co-cultured with DCs and T cells for 5 days. T cells and DCs were also cultured in the absence of MM cells and in the presence of BTZ to assess the direct effects of drug on T cells and DCs. After 5 day co-culture, cells were treated with Dynabeads™ Human T-Activator CD3/CD28 (Cat. #11131D, ThermoFisher Scientific) 5 h before analysis, and with GolgiStop™ and GolgiPlug™ (Cat. #554724 and Cat. #555029, BD Biosciences) 3 h before analysis, following the manufacturer's instructions. Cells were then collected and T cell populations were analyzed by CyTOF analysis.
DCs were generated from healthy donors PBMCs as described above (“Generation of Mo-DCs” section). T cells were negatively selected from CD14-PBMCs from the same donors using the Pan T cell Isolation Kit (Miltenyi Biotec) and frozen until immature DCs were generated. Either untreated or BTZ-treated multiple myeloma cells were co-cultured with DCs and T cells for 5 days. T cells and DCs were similarly cultured in the absence of multiple myeloma cells and in the presence of BTZ. Before analysis, cells were treated with Dynabeads™ Human T-Activator CD3/CD28 (#11131D, ThermoFisher Scientific), and with GolgiStop™ and GolgiPlug™ (#554724 and #555029, BD Biosciences). T cell populations were analyzed using 10 color flow-cytometry with the following Abs: CD3-BV605 (#317322), CD8-FITC (#344704), CD4-PerCP/Cyanine5.5 (#317428), CD45RO-APC (#304210), CCR7-PE (#353204), CD69-PE/Cyanine7 (#310912), and IL-2-BV785 (#500348), IFNγ-BV421 (#502532) (BioLegend); and PD1-Super Bright 702 (#67-998-582). LIVE/DEAD™ Fixable Aqua dead Cell Stain(#L34966) (ThermoFisher Scientific) was also added to discriminate dead cells. Intracellular staining for IL-2 and IFNγ was performed using the Fixation/Permeabilization Solution Kit (BD Biosciences).
When T cell experiments were performed using patient multiple myeloma cells, the entire population of autologous BMMCs was cultured in presence and absence of BTZ and analyzed after 5 days. Data from experiments performed using multiple myeloma cell lines were analyzed with a bioinformatic semiautomated pipeline (Perez et al. (2020) Blood; 136(2):199-209). Briefly, flow cytometry files were entered in a custom R script which includes different bioinformatic algorithms and has been designed to reduce the impact of technical and instrumental differences, minimize the variability of manual analysis, and reveal full cellular diversity based on automatic semi-supervised clustering. Data from primary MM patients were manually analyzed by using Infinicyt 2.0 (Cytognos, Salamanca, Spain).

5TGM1 cells = test: In vivo rechallenge of viable 5TGM1 cells in BTZ-treated mice; design: species or system mouse
Experimental: C57BL/KaLwRijHsd mice bearing 5TGM1 WT tumors were treated with BTZ as above. 2 weeks after observation of tumor regression, treated (n=5) as well as naïve mice (n=5), were rechallenged with viable 1×10^6 5TGM1 WT cells, and tumor growth was monitored over time. In a parallel experiment, spleens were harvested 2 weeks after tumor rechallenge from both groups to test T cell specific reactivity against multiple myeloma cell by ELISPOT assay (Translational Immunogenomics Laboratory, DFCI).

CALR = test: Mass spectrometry after CALR immunoprecipitation; assay type: cell-based, human; details: AMO1 WT vs GABARAP^KO, with or without BTZ
Description: To test this hypothesis, the CALR network was explored at the protein level by performing mass spectrometry (MS) after CALR immunoprecipitation (IP) in WT or GABARAP^KO AMO1 cells in the presence or absence of BTZ. […] CALR trap in the mitochondria has been recently reported in tumors with high stanniocalcin 1 (STC1), a newly recognized phagocytosis checkpoint driving tumor immune resistance (Lin et al. (2021) Cancer Cell. April 12; 39(4):480-493.e6. doi: 10.1016/j.ccell.2020.12.023. Epub 2021 Jan. 28. PMID: 33513345; PMCID: PMC8044011). […] A WB analysis of FLAG-immunoprecipitated proteins in […] cells expressing FLAG-tagged GABARAP was performed to analyze GABARAP interacting partners. […] These findings identify a molecular mechanism whereby GABARAP prevents STC1 binding to CALR; conversely, in low-GABARAP cells STC1 binding to CALR induces trapping of CALR in the mitochondria (FIG. 34).

`CC(C)C[C@H](NC(=O)[C@H](Cc1ccccc1)NC(=O)c1cnccn1)B(O)O` [BTZ, bortezomib] was tested, and the “multiple myeloma cell death, as measured by phosphatidylserine exposure” value [1] was “induced multiple myeloma cell death in a dose-dependent manner”, the “phagocytosis of BTZ-treated pdMM cells by DCs” value [2] was “dose-dependent increase in phagocytosis of BTZ-treated pdMM cells by DCs” and the “T cell subsets (CD4+ EM, total CD8+, CD8+ EM)” value (T cells; BTZ-treated AMO1 STING^KO vs WT) was “no significant increase of CD4+EM; total CD8+; and CD8+EM cells”. For the same compound, the “T cell subsets (CD4+ EM, total CD8+, CD8+ EM, CD8+ TEMRA)” value (T cells; BTZ-treated AMO1 or H929 cells with DCs and T cells, 5 days) was “significant increase of CD4+ effector memory (EM); total CD8+; CD8+EM and CD8+ terminally differentiated EM (TEMRA) cells”, the “T cell subsets / T cell maturation” value (T cells; DCs and T cells with BTZ 5 nM in the absence of MM cells, 5 days) was “not observed by treating DCs and T cells with BTZ in the absence of multiple myeloma cells; also recorded: does not induce T cell maturation” and the “T cell phenotype / priming (CyTOF)” value (T cells; DCs primed by BTZ-treated AMO1 GABARAP^KO) was “led to T cell exhaustion; also recorded: GABARAP^KO blocks T cell priming by DCs after BTZ treatment”. For the same compound, the “CD4+ T cell phenotype (CyTOF)” value (T cells; DCs primed by BTZ-treated AMO1 WT) was “switched CD4+ T cells towards an effector memory function”, the “CD4+ and CD8+ T cell populations” value (T cells; autologous BMMCs from MM patients, BTZ 5 nM, 5 days) was “confirmed the phenotypic changes in both CD4+ and CD8+ T cell populations” and the “mice alive at the end of observation” value (5TGM1 cells; day 30 after rechallenge) was 100%. For the same compound, the “tumor development after rechallenge” value (5TGM1 cells; live 5TGM1 WT injected two weeks after BTZ-induced tumor regression) was “did not result in tumor development” and the “binding of CALR to mitochondrial proteins” value (CALR) was “increases the binding of CALR to mitochondrial proteins in AMO1 GABARAP^KO cells and not WT cells; also recorded: increase of the binding of CALR to mitochondrial proteins only in AMO1 GABARAP^KO cells; also recorded: CALR localizes to the mitochondria after treatment with BTZ in GABARAP KO cells”.
